According to US20260158125A1, “PEPTIDE VACCINE” (ARGONAUT THERAPEUTICS LIMITED, priority 2021, published 2026):

System: splenocytes (IFN y activated T cells)
Assay: Immunogenicity assay: peptide vaccination and interferon gamma ELispot of splenocytes
Format: in vivo
Conditions: Balb/c mice vaccinated day 0 and 7, 50 μg/peptide with polyIC and anti-CD40; splenocytes restimulated at 15 μg/ml
Protocol: Groups of 8 week old Balb/c mice (Charles River) were vaccinated i.v with the indicated peptide mix (Table 2), (50 μg/peptide (GenScript)) with 30 μg polyIC and 25 μg anti-CD40 mAb). As a positive control AH peptide (SPSYVYHQF SEQ ID NO: 156) vaccination was used (Huang et al., 1996). Vehicle-only mice were vaccinated with DMSO/PBS plus adjuvants as above. Mice were boosted i.v. 7 days later with the same formulation. Mice were culled 7 days post-boost and their spleens removed (4 mice per group). All animals were housed in specific pathogen-free conditions at the Biomedical Services Building (University of Oxford). All work was performed under UK Home Office license PPL PP3430109 in accordance with the UK Animal (Scientific Procedures) Act 1986. All work was performed by trained and licensed individuals.
The day before culling, Merk Multiscreen 96 well Filter Plates (Merck) were incubated with primary antibody (anti-mouse INFy mAb clone AN18, Mabtech) diluted in sterile PBS (Gibco), at 4° C. […] The splenocyte pellet was resuspended in 5 ml R10, counted and the cell concentration adjusted to 4×10^5/ml. […] The spots were quantitated on an ELISPOT counter (AID, Germany).

With SPSYVYHQF (AH1 peptide) [AHI1] the “immunogenicity (IFN y activated T cells, ELISpot)” value was “positive immunogenic control”.
